{"source": "paper PMC6482079", "about": "(European journal of pharmaceutical sciences : official …, 2019)", "test_in_all_cases": "microbe, parasite or virus in culture", "assay_type_in_all_cases": "cell-based, influenza A virus", "settings_in_all_cases": "for Drug sensitivity: sensitivity of the strain to the named drug", "key": {"[1]": {"system": "A/Washington/29/2009 (H1N1)"}, "A/Texas/04/2009 (H1N1)": {"system": "A/Texas/04/2009 (H1N1)"}, "A/WSN/1933 (H1N1)": {"system": "A/WSN/1933 (H1N1)"}, "[2]": {"system": "A/Switzerland/9715293/2013 (H3N2)"}, "[3]": {"system": "A/North Carolina/39/2009 (H1N1)"}, "[4]": {"system": "A/California/07/2009 (H1N1)"}, "[5]": {"system": "A/Denmark/528/2009 (H1N1)"}}, "data": [{"smiles": "CCC(CC)O[C@@H]1C=C(C(=O)O)C[C@H](N)[C@H]1NC(C)=O", "note": "[Oseltamivir carboxylate]", "values": [{"measurement": "Drug sensitivity", "setting": "[1]", "result": "Amantadine Resistant Oseltamivir Resistant"}, {"measurement": "Drug sensitivity", "setting": "A/Texas/04/2009 (H1N1)", "result": "Amantadine Resistant Oseltamivir Resistant"}, {"measurement": "Drug sensitivity", "setting": "A/WSN/1933 (H1N1)", "result": "Sensitive"}, {"measurement": "Drug sensitivity", "setting": "[2]", "result": "Sensitive"}, {"measurement": "Drug sensitivity", "setting": "[3]", "result": "Amantadine Resistant Oseltamivir Resistant"}, {"measurement": "Drug sensitivity", "setting": "[4]", "result": "Sensitive"}, {"measurement": "Drug sensitivity", "setting": "[5]", "result": "Amantadine Resistant Oseltamivir Resistant"}]}, {"smiles": "Cc1cc(OCc2nnc(SC3CCCC3)n2-c2cccnc2)ccc1-c1ccc(S(C)(=O)=O)cc1", "note": "[NMS-873]", "values": [{"measurement": "SI (selectivity index)", "setting": "[1]; CC50/EC50", "result": 66}, {"measurement": "EC50", "setting": "[1]; Influenza A virus, H1N1, MDCK", "result": "0.041 ± 0.005", "unit": "µM"}, {"measurement": "SI (selectivity index)", "setting": "A/Texas/04/2009 (H1N1); CC50/EC50", "result": 71}, {"measurement": "EC50", "setting": "A/Texas/04/2009 (H1N1); Influenza A virus, H1N1, MDCK", "result": "0.038 ± 0.005", "unit": "µM"}, {"measurement": "SI (selectivity index)", "setting": "A/WSN/1933 (H1N1); CC50/EC50", "result": 74}, {"measurement": "EC50", "setting": "A/WSN/1933 (H1N1); Influenza A virus, H1N1|WSN, MDCK", "result": "0.037 ± 0.002", "unit": "µM"}, {"measurement": "SI (selectivity index)", "setting": "[2]; CC50/EC50", "result": 129}, {"measurement": "EC50", "setting": "[2]; Influenza A virus, H3N2, MDCK", "result": "0.021 ± 0.002", "unit": "µM"}, {"measurement": "SI (selectivity index)", "setting": "[3]; CC50/EC50", "result": 78}, {"measurement": "EC50", "setting": "[3]; Influenza A virus, H1N1, MDCK", "result": "0.035 ± 0.005", "unit": "µM"}, {"measurement": "SI (selectivity index)", "setting": "[4]; CC50/EC50", "result": 49}, {"measurement": "EC50", "setting": "[4]; Influenza A virus, H1N1, MDCK", "result": "0.056 ± 0.005", "unit": "µM"}, {"measurement": "SI (selectivity index)", "setting": "[5]; CC50/EC50", "result": 70}, {"measurement": "EC50", "setting": "[5]; Influenza A virus, H1N1, MDCK", "result": "0.039 ± 0.004", "unit": "µM"}]}, {"smiles": "NC12CC3CC(CC(C3)C1)C2", "note": "[Amantadine, amantadine]", "values": [{"measurement": "Drug sensitivity", "setting": "[1]", "result": "Amantadine Resistant Oseltamivir Resistant"}, {"measurement": "Drug sensitivity", "setting": "A/Texas/04/2009 (H1N1)", "result": "Amantadine Resistant Oseltamivir Resistant"}, {"measurement": "Drug sensitivity", "setting": "A/WSN/1933 (H1N1)", "result": "Amantadine Resistant Oseltamivir Sensitive"}, {"measurement": "Drug sensitivity", "setting": "[2]", "result": "Amantadine Resistant Oseltamivir Sensitive"}, {"measurement": "Drug sensitivity", "setting": "[3]", "result": "Amantadine Resistant Oseltamivir Resistant"}, {"measurement": "Drug sensitivity", "setting": "[4]", "result": "Amantadine Resistant Oseltamivir Sensitive"}, {"measurement": "Drug sensitivity", "setting": "[5]", "result": "Amantadine Resistant Oseltamivir Resistant"}]}]}
